From patent US4567201A, “Diphenoxypropane derivatives and compositions of antiasthmatic and antiinflammatory agents thereof” (Takeda Chemical Industries, Ltd., priority 1981, dated 1986) come the findings set out here.

In one data set the test system is Carrageenin edema. The data set can be described thus: Carrageenin edema in rats. To be noted: for Percent inhibition: carrageenin edema; for Mean volume of edematous swelling ±S.E.: in ml (unit assumed). The class given is in vivo, rat. The method, then:
The volume of the right hind paw of each rat was measured and the test compound suspended in 4% gum arabic solution was orally administered in an amount of 1 ml/100 g body weight. Immediately thereafter, a further amount of water was given to make the total dosing volume 5 ml. After 1 hour, 0.05 ml of a 1% suspension of carageenin in physiological saline was subcutaneously injected into the foot pad. Three hours after the carrageenin injection, the volume of the paw was measured again and the volume of the edema was calculated as a difference between this measured volume of the paw and the volume before the injection.
In the case of intravenous administration, a solution of the test compound in an aqueous solution of NaHCO3 was intravenously administered in an amount of 2.0 ml/100 g body weight and 5 ml of water per animal was orally administered. Then, carrageenin was injected subcutaneously to produce edema.
(In general: The carrageenan paw model is a standard test of acute inflammation.)

Another data set in a line: Acute toxicity in mice. As to conditions: 500 mg/kg oral. The class given is in vivo, mouse (Jcl:ICR strain). On the procedure: Five 5-week-old male mice of Jcl:ICR strain, weighing 26.0 to 30.5 g, were used. Compound (I)-A-1 was suspended in a 5% solution of gum arabic and administered orally by gastric gavage at the level of 0.2 ml per 10 grams body weight.
Five 5-week-old male mice of Jcl:ICR strain, weighing 26.0 to 30.5 g, were used. Compound (I)-B-1 or (I)-B-2 was suspended in a 5% solution of gum arabic and administered orally by gastric gavage at the level of 0.2 ml per 10 grams body weight.

Data set [1] has as its system bronchoconstriction due to leukotriene D4 (LTD4). The data set can be described thus: Inhibition of bronchoconstriction due to intravenous LTD4 in guinea pigs (Konzett-Rossler). The class given is in vivo, guinea pig (Hartley strain). To be noted: for Percent increase of overflow: 2 minutes before LTD4 10 μg/kg i.v., Mean±S.E.; for Percent inhibition: 2 minutes before LTD4 (Table 2). The method, then:
Guinea pigs of Hartley strain, both male and female, with body weights about 400 g were assigned to groups of 6 individuals, and the bronchoconstriction due to LTD4 were measured according to the method of Konzett-Rossler, [Konzett, H. and Rossler, R.: Naunyn-Schmiedebergs Archiv Fur Experimentelle Pathologie und Pharmakologie 195, 71-74 (1940)]. Each guinea pig was fixed in supine position under urethane anesthesia (1.5 g/kg, intraperitoneal) and the trachea was incised and connected to an artificial respiration apparatus, Rodent Respirator Model 680 [Harvard Apparatus Company, U.S.A.] via a cannula. The branch tube of this tracheal cannula was connected to Bronchospasm Transducer Model 7020 [Ugobasil Biological Research Apparatus, Italy]. Under the conditions of 5 to 7 ml of air per stroke, 70 strokes per minute and a lung loading pressure of 10 cmH2 O, the volume of overflowing air was recorded on Rectigraph-8S (Sanei Sokki Ltd., Japan) via a transducer. After administration of gallamine triethiodide (1 mg/kg, i.v.), 10 μ g/kg of histamine.2HCl was intravenously administered to investigate the response of the animal. Then, a solution of LTD4 in physiological saline (10 μg/kg) was intravenously administered and the bronchoconstriction elicited thereby was recorded for 15 minutes. Two minutes before LTD4 loading, compound (I)-A-1 was intravenously administered in a volume of 0.1 ml per 100 g body weight. Compound (I)-A-1 and LTD4 were administered through a cannula inserted into the jugular vein.
The compound (I)-A-1 was used as dissolved in physiological saline containing sodium hydrogen carbonate, and LTD4 was taken from a stock stored in methanol (1 mg/1 ml methanol) at -70° C.
The bronchoconstriction induced by intravenous administration of 10 μg/kg of LTD4 as given 2 minutes after the administration of physiological saline was maximal at the time of 30 seconds after the administration of LTD4 and, since then, was rapidly attenuated to about 50% at the time of 2 minutes but lasted till 15 minutes. Assuming that the response at complete obstruction is 100%, the values at 30 seconds and 15 minutes were 47.4±6.9% (n=6, Mean±S.E.) and 19.4±2.8% (Mean±S.E.), respectively (S.E.: standard error).
Then the present inventors studied the antagonistic action of the compound (I)-B against SRS-A using a synthetic LTD4 in the manner described on the compound (I)-A.
In each case, the bronchoconstriction following intravenous administration of 10 μg/kg of LTD4 at 2 or 30 minutes after the administration of physiological saline reached a maximum 30 seconds after the administration of LTD4, and then decreased to about 50% at 2 minutes after the administration of LTD4. The response continued for 15 minutes after the administration of LTD4. Repeated experiments using 6 animals per group gave mean degrees of maximum bronchoconstriction (30-second values) of 52.2-67.1% and 54.7-70.1%, respectively, as compared with the state of complete obstruction (100%). In experiment 1, the test compounds (I)-B-1, (I)-B-2 and Control compound-1 were each intravenously administered at two minutes before the administration of LTD4 and inhibitory effect on the bronchoconstriction was examined. The minimum effective doses (causing statistically significant differences as compared with the control group; significance level <5%) were 0.313, 0.313 and 5 mg/kg, respectively. The corresponding inhibition percentages were 41, 52 and 56%, respectively. In experiment 2, the test compounds were intravenously administered 30 minutes before the administration of LTD4 and the effect on the above response was examined. The minimum effective doses were 5, 5, and 20 mg/kg, respectively.
The test compounds were intravenously administered 2 minutes before the
intravenous administration of 10 μg/kg of LTD4.
The test compounds were intravenously administered 30 minutes before the
Each value was calculated from the volume (in percentage) of air […]

Data set [2] relates to leukotriene D4 (LTD4)-induced contraction of the guinea pig ileum. Briefly: Anti-SRS-A activity: inhibition of LTD4-induced contraction of guinea pig ileum. As to conditions: 50% inhibition of LTD4-induced contraction (60-70% of maximum contraction), drug added 1 minute before LTD4. From the text:
The present inventors studied the antagonistic action of compound (I)-A against SRS-A using a synthetic LTD4 in the following manner.
The inhibitory effect of the drug on the contractile response (60-70% of maximum contraction) of the ileum of guinea pig (body weight 300-350 g, female and male) to leukotriene D4 (LTD4) was investigated. In Tyrode solution containing atropine (10^-7 M) and mepyramine (10^-6 M), 3×10^-10 or 10^-9 M of LTD4 was repeatedly permitted to act on the guinea pig ileum and after the amplitude of contraction had become constant, a solution of the test drug was added to a final concentration of 10^-9 to 10^-4 M. After 1 minute, the same concentration of LTD4 was further added and the anti-SRS-A activity of the drug was calculated from the change in contraction amplitude by means of the following equation. [formula]
To obtain the IC50 value, the mole concentration of the drug showing a 50% inhibition of the contractile response was determined from plots on a graph.
The drug was used as dissolved in dimethyl sulfoxide. The solvent was used in an amount less than 1% which would not exert any influence on the ileum.

pIC50: −log10 of the molar value.

As to `CCCc1c(OCC(O)COc2ccc(-c3nn[nH]n3)cc2Cl)ccc(C(C)=O)c1O` (centres unmarked) [Compound (I)-A-1, 4-[3-[4-(tetrazol-5-yl)-2-chlorophenoxy]-2-hydroxypropoxy]-2-hydroxy-3-propylacetophenone], the Percent inhibition is 19.2% in the data set on Carrageenin edema (1 mg/kg i.v.); 25.0% in the data set on Carrageenin edema (10 mg/kg i.v.); 15.0% in the data set on Carrageenin edema (50 mg/kg p.o.); 39% in data set [1] (0.08 mg/kg i.v.); 41% in data set [1] (0.313 mg/kg i.v.); 51% in data set [1] (1.25 mg/kg i.v.). This compound came in with a Percent inhibition in data set [1] (5 mg/kg i.v.) of 93%. For the same compound, the “Mean volume of edematous swelling ±S.E.” value in the data set with Carrageenin edema (1 mg/kg i.v.) is on record as 0.442 ± 0.044; in the data set with Carrageenin edema (10 mg/kg i.v., *p<0.05) it was 0.410 ± 0.046; with Carrageenin edema (50 mg/kg p.o., 3 hours after carrageenin, *p<0.05), 0.487 ± 0.023. In addition, in the data set on Carrageenin edema (rat, in vivo), the “antiinflammatory activity (in words)” value is “has an antiinflammatory activity”. Further, the Autopsy findings entry in “Acute toxicity in mice” (after 1 week) is reported as “did not reveal any abnormalities”. In addition, the “symptoms attributable to compound after oral administration” value in the data set “Acute toxicity in mice” (male mice) is on record as “no symptoms”. Further, the “Percent increase of overflow” value is reported as 29.1 ± 7.5% in data set [1] (0.08 mg/kg i.v., 8 animals); 28.1 ± 7.1% in data set [1] (0.313 mg/kg i.v., 6 animals); 23.4 ± 8.0% in data set [1] (1.25 mg/kg i.v., 6 animals, *p<0.05 vs physiological saline control); 3.3 ± 2.1% in data set [1] (5 mg/kg i.v., 6 animals, ***p<0.001 vs physiological saline control). Also, the “inhibition of LTD4 bronchoconstriction (in words)” value in data set [1] (5 mg/kg i.v., 2 minutes before LTD4) is “substantially complete inhibition”. Moreover, in data set [1] (intravenously administered 2 minutes before LTD4 dosing), the “inhibitory effect against LTD4 bronchoconstriction (in words)” value is given as “remarkable inhibitory effect”. The pIC50 (usually the negative decadic logarithm of the IC50, by convention in mol/L) in data set [2] was 8.39.
